Test results from US10072006B2 (MUTABILIS, priority 2015, dated 2018).
pIC50: −log10 of the molar value. Values after ≈ are worked out from the molar mass of the structure shown.

Key:
OXA-48 = target: T1, OXA-48 (Klebsiella pneumoniae, UniProt Q6XEC0); test: β-lactamase inhibitory activity, determination of IC50 (nitrocefin hydrolysis); type: biochemical
T1 construct: made in house; host or cells: E. coli

SHV-1 = target: T2, SHV-1 (Klebsiella pneumoniae, UniProt P0AD64); test: as above; type: biochemical
T2 construct: made in house; host or cells: E. coli
T2 sequence (P0AD64 22-286): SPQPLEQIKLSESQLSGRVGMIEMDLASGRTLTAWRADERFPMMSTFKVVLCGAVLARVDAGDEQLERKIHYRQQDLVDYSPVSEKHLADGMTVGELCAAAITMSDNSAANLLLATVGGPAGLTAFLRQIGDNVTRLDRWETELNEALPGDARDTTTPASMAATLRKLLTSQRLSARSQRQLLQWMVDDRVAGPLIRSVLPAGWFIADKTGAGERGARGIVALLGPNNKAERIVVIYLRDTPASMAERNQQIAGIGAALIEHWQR

OXA-1 = target: T3, OXA-1 (Escherichia coli, UniProt P13661); test: as above; type: biochemical
T3 construct: made in house; host or cells: E. coli
T3 sequence (P13661 26-276): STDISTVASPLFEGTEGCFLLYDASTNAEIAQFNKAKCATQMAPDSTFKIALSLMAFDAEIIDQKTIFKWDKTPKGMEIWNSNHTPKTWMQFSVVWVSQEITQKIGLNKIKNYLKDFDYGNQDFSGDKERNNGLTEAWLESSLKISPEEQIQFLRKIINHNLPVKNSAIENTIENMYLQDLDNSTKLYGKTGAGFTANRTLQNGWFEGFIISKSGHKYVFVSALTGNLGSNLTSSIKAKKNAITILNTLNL

TEM-1 = target: T4, TEM-1 (Escherichia coli, UniProt P62593); test: as above; type: biochemical; settings: class (A), 30 min pre-incubation
T4 construct: made in house; host or cells: E. coli
T4 sequence (P62593 24-286 limits assumed): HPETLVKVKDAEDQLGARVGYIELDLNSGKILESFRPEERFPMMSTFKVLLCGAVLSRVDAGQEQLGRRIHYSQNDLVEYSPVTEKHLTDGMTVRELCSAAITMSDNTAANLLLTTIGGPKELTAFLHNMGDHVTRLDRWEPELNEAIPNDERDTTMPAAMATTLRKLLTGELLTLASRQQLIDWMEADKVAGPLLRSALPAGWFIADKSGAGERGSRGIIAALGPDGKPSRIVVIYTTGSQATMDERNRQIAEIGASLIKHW

AmpC (PAE) = AmpC (PAE) (Pseudomonas aeruginosa, UniProt P24735); test: biochemical
AmpC (PAE), sequence (P24735 27-397): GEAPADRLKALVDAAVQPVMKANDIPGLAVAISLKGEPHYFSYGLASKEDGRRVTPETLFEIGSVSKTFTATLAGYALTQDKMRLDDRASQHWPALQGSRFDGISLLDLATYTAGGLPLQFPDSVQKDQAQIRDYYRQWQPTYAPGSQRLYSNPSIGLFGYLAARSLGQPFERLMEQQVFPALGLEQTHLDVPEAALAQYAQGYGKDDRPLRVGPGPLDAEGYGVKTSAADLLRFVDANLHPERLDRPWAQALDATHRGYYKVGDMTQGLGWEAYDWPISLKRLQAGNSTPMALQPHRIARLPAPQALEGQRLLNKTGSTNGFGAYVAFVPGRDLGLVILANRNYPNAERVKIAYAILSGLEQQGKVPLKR

KPC-2 = target: T5, KPC-2 (Klebsiella pneumoniae, UniProt Q9F663); test: β-lactamase inhibitory activity, determination of IC50 (nitrocefin hydrolysis); type: biochemical
T5 construct: made in house; host or cells: E. coli
T5 sequence (Q9F663 25-293 limits assumed): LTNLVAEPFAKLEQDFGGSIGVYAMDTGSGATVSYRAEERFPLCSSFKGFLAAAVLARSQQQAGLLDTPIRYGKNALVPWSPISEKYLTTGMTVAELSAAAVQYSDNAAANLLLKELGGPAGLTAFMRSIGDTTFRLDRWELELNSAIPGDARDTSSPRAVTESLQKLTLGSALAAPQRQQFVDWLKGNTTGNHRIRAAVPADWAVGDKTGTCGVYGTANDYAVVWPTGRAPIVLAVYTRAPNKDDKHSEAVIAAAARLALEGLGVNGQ

AmpC (P99) = AmpC (P99) (Enterobacter cloacae, UniProt P05364); test: biochemical
AmpC (P99), sequence (P05364 21-381): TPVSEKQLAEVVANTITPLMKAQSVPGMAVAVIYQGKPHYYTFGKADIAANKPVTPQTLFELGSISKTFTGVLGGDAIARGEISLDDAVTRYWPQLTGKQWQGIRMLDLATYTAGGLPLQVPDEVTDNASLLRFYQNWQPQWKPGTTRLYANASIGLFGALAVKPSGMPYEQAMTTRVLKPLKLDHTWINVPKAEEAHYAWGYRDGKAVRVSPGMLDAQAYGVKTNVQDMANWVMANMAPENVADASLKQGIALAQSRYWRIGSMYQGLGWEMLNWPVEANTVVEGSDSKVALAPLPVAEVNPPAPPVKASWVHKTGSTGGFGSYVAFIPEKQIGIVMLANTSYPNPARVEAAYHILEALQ

[1] = system: E. coli 190317 (TEM-1, SHV-12, CTX-M-15, OXA-1); test: microbe, parasite or virus in culture; type: cell-based; settings: for MIC: Escherichia coli, 18 h, read-out: MIC compounds of the invention alone; for MIC, combination of CAZ and compounds of the invention: MIC of ceftazidime with compound fixed at 4 μg/mL, strain 190317 (E. coli)
Protocol: (§1) Briefly, compounds alone according to the invention were prepared in DMSO and spotted (2 μL each) on sterile polystyrene plates (Corning, 3788). […] Microplates were incubated for 16-20 h at 35° C. in ambient air. The MIC of the compounds was defined as the lowest concentration of said compounds that prevented bacterial growth as read by visual inspection.

OXA-15 = target: T6, OXA-15 (Pseudomonas aeruginosa, UniProt Q51574); test: β-lactamase inhibitory activity, determination of IC50 (nitrocefin hydrolysis); type: biochemical
T6 construct: made in house; host or cells: E. coli
T6 sequence (Q51574 22-275): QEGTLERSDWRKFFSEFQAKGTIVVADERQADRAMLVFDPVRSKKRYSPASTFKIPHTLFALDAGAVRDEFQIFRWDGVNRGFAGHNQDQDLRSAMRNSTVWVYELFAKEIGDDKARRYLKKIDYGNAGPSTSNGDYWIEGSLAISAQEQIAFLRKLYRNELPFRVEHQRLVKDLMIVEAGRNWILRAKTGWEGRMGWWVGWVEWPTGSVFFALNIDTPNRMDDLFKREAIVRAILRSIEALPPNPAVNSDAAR

OXA-11 = target: T7, OXA-11 (Pseudomonas aeruginosa, UniProt Q06778); test: as above; type: biochemical
T7 construct: made in house; host or cells: E. coli
T7 sequence (Q06778 21-266): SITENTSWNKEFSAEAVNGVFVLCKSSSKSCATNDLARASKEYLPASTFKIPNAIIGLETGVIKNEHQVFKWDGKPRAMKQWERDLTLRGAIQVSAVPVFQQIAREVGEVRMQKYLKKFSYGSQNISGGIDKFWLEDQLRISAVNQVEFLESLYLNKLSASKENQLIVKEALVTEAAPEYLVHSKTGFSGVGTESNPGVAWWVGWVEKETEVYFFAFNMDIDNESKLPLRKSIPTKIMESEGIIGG

CTX-M-15 = target: T8, CTX-M-15 (Escherichia coli, UniProt Q9EXV5); test: as above; type: biochemical
T8 construct: made in house; host or cells: E. coli
T8 sequence (Q9EXV5 entry or part of it): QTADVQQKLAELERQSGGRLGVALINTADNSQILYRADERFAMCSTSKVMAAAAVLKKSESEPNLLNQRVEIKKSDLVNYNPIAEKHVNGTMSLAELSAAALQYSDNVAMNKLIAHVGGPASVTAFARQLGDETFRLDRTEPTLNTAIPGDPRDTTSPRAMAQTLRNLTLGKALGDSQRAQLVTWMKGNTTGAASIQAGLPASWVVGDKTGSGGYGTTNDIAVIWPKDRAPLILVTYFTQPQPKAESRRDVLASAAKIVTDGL

[2] = system: P. aeruginosa UFR90 (Derepressed ampC, OprD-); test: MIC of compounds and synergy with ceftazidime (broth microdilution); type: cell-based; settings: for MIC, combination of CAZ and compounds of the invention: MIC of ceftazidime with compound fixed at 4 μg/mL, strain UFR90 (P. aeruginosa); for MIC: Pseudomonas aeruginosa, 18 h, read-out: MIC compounds of the invention alone
Protocol: as §1

[3] = system: E. cloacae P99 (Derepressed ampC); test: as above; type: cell-based
Protocol: as §1

[4] = system: P. aeruginosa CIP105250 (OXA-15); test: as above; type: cell-based
Protocol: as §1

[5] = system: K. pneumoniae BAA-1898 (TEM-1, SHV-11, SHV-12, KPC-2); test: as above; type: cell-based
Protocol: as §1

[6] = system: E. coli 131119 (TEM-1, OXA-48); test: as above; type: cell-based; settings: Escherichia coli, 18 h, read-out: MIC compounds of the invention alone
Protocol: as §1

[7] = system: P. aeruginosa UFR47 (VIM-1); test: as above; type: cell-based
Protocol: as §1

[8] = system: P. aeruginosa UFR93 (Derepressed ampC, OprD-, MexAB+, MexXY+); test: as above; type: cell-based; settings: for MIC, combination of CAZ and compounds of the invention: MIC of ceftazidime with compound fixed at 4 μg/mL, strain UFR93 (P. aeruginosa); for MIC: Pseudomonas aeruginosa, 18 h, read-out: MIC compounds of the invention alone
Protocol: as §1

[9] = system: P. aeruginosa UFR59 (IMP-29); test: as above; type: cell-based
Protocol: as §1

[10] = system: P. aeruginosa CIP107051 (TEM-24); test: as above; type: cell-based
Protocol: as §1

[11] = system: K. pneumoniae 6299 (TEM-1, SHV-11, OXA-163); test: as above; type: cell-based
Protocol: as §1

[12] = system: P. aeruginosa UFR48 (VIM-2); test: as above; type: cell-based
Protocol: as §1

[13] = system: P. aeruginosa UFR92 (Derepressed ampC, OprD-); test: as above; type: cell-based; settings: for MIC, combination of CAZ and compounds of the invention: MIC of ceftazidime with compound fixed at 4 μg/mL, strain UFR92 (P. aeruginosa); for MIC: Pseudomonas aeruginosa, 18 h, read-out: MIC compounds of the invention alone
Protocol: as §1

[14] = system: P. aeruginosa UFR35 (OXA-23); test: as above; type: cell-based
Protocol: as §1

E. coli RGN238 (OXA-1) = test: as above; type: cell-based; settings: Escherichia coli, 18 h, read-out: MIC compounds of the invention alone
Protocol: as §1

[15] = system: K. pneumoniae 200047 (TEM-1, SHV-32, CTX-M-15, OXA-1); test: microbe, parasite or virus in culture; type: cell-based
[16] = system: K. pneumoniae 160143 (TEM-1, SHV-1, CTX-M-15, KPC-2, OXA-1); test: microbe, parasite or virus in culture; type: cell-based
Protocol: as §1

[17] = system: E. cloacae 260508 (TEM-1, CTX-M-15); test: microbe, parasite or virus in culture; type: cell-based
Protocol: as §1

[18] = system: K. pneumoniae UFR68 (TEM-1, SHV-11, CTX-M-15, KPC-3); test: microbe, parasite or virus in culture; type: cell-based
[19] = system: E. cloacae UFR85 (TEM-1, CTX-M-15, derepressed ampC); test: microbe, parasite or virus in culture; type: cell-based
Protocol: […] […] Microplates were incubated for 16-20 h at 35° C. in ambient air. The MIC of the compounds was defined as the lowest concentration of said compounds that prevented bacterial growth as read by visual inspection.

[20] = system: K. oxytoca UFR21 (TEM-1, CTX-M-15, OXA-48); test: microbe, parasite or virus in culture; type: cell-based
[21] = system: E. cloacae UFR70 (TEM-1, CTX-M-15, CMY-2, OXA-1, Porin loss); test: MIC of compounds and synergy with ceftazidime (broth microdilution); type: cell-based
Protocol: as §1

[22] = Enterobacter cloacae, 18 h, read-out: MIC compounds of the invention alone
[23] = Pseudomonas aeruginosa, 18 h, read-out: MIC compounds of the invention alone
[24] = Klebsiella pneumoniae, 18 h, read-out: MIC compounds of the invention alone

T1 sequence (Q6XEC0 23-265 limits assumed): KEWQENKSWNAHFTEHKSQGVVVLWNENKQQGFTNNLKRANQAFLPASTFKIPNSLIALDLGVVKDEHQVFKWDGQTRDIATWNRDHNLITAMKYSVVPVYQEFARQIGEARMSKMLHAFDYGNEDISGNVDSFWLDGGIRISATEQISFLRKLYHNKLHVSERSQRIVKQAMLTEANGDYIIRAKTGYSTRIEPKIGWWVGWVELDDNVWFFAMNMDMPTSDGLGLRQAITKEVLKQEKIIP

Compound: NC[C@@H]1C=C(c2cnco2)[C@@H]2CN1C(=O)N2OC(F)(F)C(=O)O (relative stereo) [Example 3, lithium and 2,2,2-trifluoroacetate [trans-2-(azaniumylmethyl)-4-oxazol-5-yl-7-oxo-1,6-diazabicyclo[3.2.1]oct-3-en-6-yl]oxy]-2,2-difluoro-acetate]
- pIC50 (OXA-48): 8.24
- pIC50 (SHV-1): 8.34
- pIC50 (OXA-1): 7.77
- pIC50 (TEM-1): 8.52
- pIC50 (AmpC (PAE)): 6.66
- pIC50 (KPC-2): 7.48
- pIC50 (AmpC (P99)): 8.13
- MIC [1]: 0.25 µg/mL (≈ 0.757 µM)
- MIC, combination of CAZ and compounds of the invention [1]: <0.125 µg/mL
- pIC50 (OXA-15): 8.80
- pIC50 (OXA-11): 7.32
- pIC50 (CTX-M-15): 8.70
- MIC, combination of CAZ and compounds of the invention [2]: <0.25 µg/mL
- MIC [2]: 1 µg/mL
- MIC [3, 22]: 0.063 µg/mL
- MIC, combination of CAZ and compounds of the invention ([3]; MIC of ceftazidime with compound fixed at 4 μg/mL, strain P99 (E. cloacae)): <0.125 µg/mL
- MIC, combination of CAZ and compounds of the invention ([4]; MIC of ceftazidime with compound fixed at 4 μg/mL, strain CIP105250 (P. aeruginosa)): 8 µg/mL
- MIC ([4]; Pseudomonas aeruginosa, CIP105250, 18 h, read-out: MIC compounds of the invention alone): > 32 µg/mL
- MIC ([5]; Klebsiella pneumoniae, BAA1898, read-out: MIC compounds of the invention alone): > 32 µg/mL
- MIC, combination of CAZ and compounds of the invention ([5]; MIC of ceftazidime with compound fixed at 4 μg/mL, strain BAA-1898 (K. pneumoniae)): 1 µg/mL
- MIC [6]: 0.5 µg/mL
- MIC, combination of CAZ and compounds of the invention ([7]; MIC of ceftazidime with compound fixed at 4 μg/mL, strain UFR47 (P. aeruginosa)): <0.25 µg/mL
- MIC [7, 23]: 4 µg/mL
- MIC, combination of CAZ and compounds of the invention [8]: 0.5 µg/mL
- MIC [8]: 16 µg/mL
- MIC, combination of CAZ and compounds of the invention ([9]; MIC of ceftazidime with compound fixed at 4 μg/mL, strain UFR59 (P. aeruginosa)): 2 µg/mL
- MIC [9, 23]: 16 µg/mL
- MIC, combination of CAZ and compounds of the invention ([10]; MIC of ceftazidime with compound fixed at 4 μg/mL, strain CIP107051 (P. aeruginosa)): ≤0.25 µg/mL
- MIC ([10]; Pseudomonas aeruginosa, CIP107051, 18 h, read-out: MIC compounds of the invention alone): 16 µg/mL
- MIC [11, 24]: > 32 µg/mL
- MIC, combination of CAZ and compounds of the invention ([11]; MIC of ceftazidime with compound fixed at 4 μg/mL, strain 6299 (K. pneumoniae)): 1 µg/mL
- MIC, combination of CAZ and compounds of the invention ([12]; MIC of ceftazidime with compound fixed at 4 μg/mL, strain UFR48 (P. aeruginosa)): 16 µg/mL
- MIC [12, 23]: 8 µg/mL
- MIC, combination of CAZ and compounds of the invention [13]: ≤0.25 µg/mL
- MIC [13]: 8 µg/mL
- MIC, combination of CAZ and compounds of the invention ([14]; MIC of ceftazidime with compound fixed at 4 μg/mL, strain UFR35 (P. aeruginosa)): <0.25 µg/mL
- MIC [14, 23]: 2 µg/mL
- MIC (E. coli RGN238 (OXA-1)): > 32 µg/mL

Compound: NC[C@H]1C=C(c2cnco2)[C@@H]2CN1C(=O)N2OS(=O)(=O)[O-].O=C(O)C(F)(F)F.[Na+] (relative stereo) [Example 1, Sodium and 2,2,2-trifluoroacetate [trans-2-(azaniumylmethyl)-4-oxazol-5-yl-7-oxo-1,6-diazabicyclo[3.2.1]oct-3-en-6-yl] sulfate]
- pIC50 (OXA-48): 9.29
- pIC50 (SHV-1): 8.89
- pIC50 (OXA-1): 7.10
- MIC [15, 24]: > 32 µg/mL
- MIC, combination of CAZ and compounds of the invention ([15]; MIC of ceftazidime with compound fixed at 4 μg/mL, strain 200047 (K. pneumoniae)): 0.5 µg/mL
- pIC50 (KPC-2): 8.11
- MIC [16, 24]: > 32 µg/mL
- MIC, combination of CAZ and compounds of the invention ([16]; MIC of ceftazidime with compound fixed at 4 μg/mL, strain 160143 (K. pneumoniae)): 1 µg/mL
- MIC [1]: 0.031 µg/mL
- MIC, combination of CAZ and compounds of the invention [1]: <0.25 µg/mL
- MIC ([17]; Enterobacter cloacae, read-out: MIC compounds of the invention alone): 0.063 µg/mL
- MIC, combination of CAZ and compounds of the invention ([17]; MIC of ceftazidime with compound fixed at 4 μg/mL, strain 260508 (E. cloacae)): ≤0.125 µg/mL
- pIC50 (OXA-15): 9.19
- MIC [18, 24]: > 32 µg/mL
- MIC, combination of CAZ and compounds of the invention ([18]; MIC of ceftazidime with compound fixed at 4 μg/mL, strain UFR68 (K. pneumoniae)): 1 µg/mL
- pIC50 (OXA-11): 8.39
- MIC [19, 22]: > 32 µg/mL
- MIC, combination of CAZ and compounds of the invention ([19]; MIC of ceftazidime with compound fixed at 4 μg/mL, strain UFR85 (E. cloacae)): 2 µg/mL
- pIC50 (CTX-M-15): 8.27
- MIC ([20]; Klebsiella oxytoca, 18 h, read-out: MIC compounds of the invention alone): > 32 µg/mL
- MIC, combination of CAZ and compounds of the invention ([20]; MIC of ceftazidime with compound fixed at 4 μg/mL, strain UFR21 (K. oxytoca)): 0.5 µg/mL
- MIC, combination of CAZ and compounds of the invention [2]: <0.25 µg/mL
- MIC [2]: 0.5 µg/mL
- MIC [21, 22]: 16 µg/mL
- MIC, combination of CAZ and compounds of the invention ([21]; MIC of ceftazidime with compound fixed at 4 μg/mL, strain UFR70 (E. cloacae)): 1 µg/mL
- MIC, combination of CAZ and compounds of the invention [8]: <0.25 µg/mL
- MIC [8]: 8 µg/mL
- MIC, combination of CAZ and compounds of the invention [13]: <0.25 µg/mL
- MIC [13]: 2 µg/mL
